Results from US11767341B2, “Lincosamide antibiotics and uses thereof” (President and Fellows of Harvard College, priority 2017, dated 2023).
≈ marks a conversion by molar mass, not a printed value.

tested on: S. pneumoniae MMX 3028 cErmB; assay: MIC determination; assay type: cell-based; conditions: Streptococcus pneumoniae, MMX3028CERMB

Row | SMILES | MIC [µg/mL]
1 | CSC1O[C@H]([C@H](NC(=O)[C@H]2NC[C@@H]3CC(c4ccc(C(F)(F)F)cc4)=CCO[C@H]32)[C@H](C)Cl)C(O)[C@@H](O)[C@H]1O (some centres unmarked) [FSA-507060] | 16 (≈ 27.5 µM)

tested on: P. aeruginosa MMX Mex parent strain; assay: MIC determination; assay type: cell-based; conditions: Pseudomonas aeruginosa

Row | SMILES | MIC [µg/mL]
2 | CSC1O[C@H]([C@H](NC(=O)[C@H]2NC[C@@H]3CC(c4ccc(C(F)(F)F)cc4)=CCO[C@H]32)[C@H](C)Cl)C(O)[C@@H](O)[C@H]1O (some centres unmarked) [FSA-507060] | > 64

tested on: S. pneumoniae ATCC 49619; assay: MIC determination; assay type: cell-based; conditions: Streptococcus pneumoniae, ATCC49619; S. pneumoniae ATCC 49619; read-out: MIC

Row | SMILES | MIC [µg/mL]
3 | CSC1O[C@H]([C@H](NC(=O)[C@H]2NC[C@@H]3CC(c4ccc(C(F)(F)F)cc4)=CCO[C@H]32)[C@H](C)Cl)C(O)[C@@H](O)[C@H]1O (some centres unmarked) [FSA-507060] | 0.5 (≈ 0.861 µM)

tested on: P. aeruginosa ATCC 27853; assay: MIC determination; assay type: cell-based; conditions: Pseudomonas aeruginosa, ATCC27853

Row | SMILES | MIC [µg/mL]
4 | CSC1O[C@H]([C@H](NC(=O)[C@H]2NC[C@@H]3CC(c4ccc(C(F)(F)F)cc4)=CCO[C@H]32)[C@H](C)Cl)C(O)[C@@H](O)[C@H]1O (some centres unmarked) [FSA-507060] | > 64

tested on: S. pyogenes MMX 946 Macrolide-Resistant; assay: MIC determination; assay type: cell-based; conditions: Streptococcus pyogenes; S. pyogenes MMX 946 Macrolide-Resistant (MacRes); read-out: MIC

Row | SMILES | MIC [µg/mL]
5 | CSC1O[C@H]([C@H](NC(=O)[C@H]2NC[C@@H]3CC(c4ccc(C(F)(F)F)cc4)=CCO[C@H]32)[C@H](C)Cl)C(O)[C@@H](O)[C@H]1O (some centres unmarked) [FSA-507060] | 32 (≈ 55.1 µM)

tested on: E. coli MMX 0121 ΔTolC; assay: MIC determination; assay type: cell-based; conditions: Escherichia coli

Row | SMILES | MIC [µg/mL]
6 | CSC1O[C@H]([C@H](NC(=O)[C@H]2NC[C@@H]3CC(c4ccc(C(F)(F)F)cc4)=CCO[C@H]32)[C@H](C)Cl)C(O)[C@@H](O)[C@H]1O (some centres unmarked) [FSA-507060] | 16 (≈ 27.5 µM)

tested on: E. coli MMX TolC parent strain; assay: MIC determination; assay type: cell-based; conditions: Escherichia coli; E. coli MMX TolC parent strain; read-out: MIC

Row | SMILES | MIC [µg/mL]
7 | CSC1O[C@H]([C@H](NC(=O)[C@H]2NC[C@@H]3CC(c4ccc(C(F)(F)F)cc4)=CCO[C@H]32)[C@H](C)Cl)C(O)[C@@H](O)[C@H]1O (some centres unmarked) [FSA-507060] | 64 (≈ 110 µM)

tested on: S. aureus BAA 977 iErmA; assay: MIC determination; assay type: cell-based; conditions: Staphylococcus aureus, BAA977

Row | SMILES | MIC [µg/mL]
8 | CSC1O[C@H]([C@H](NC(=O)[C@H]2NC[C@@H]3CC(c4ccc(C(F)(F)F)cc4)=CCO[C@H]32)[C@H](C)Cl)C(O)[C@@H](O)[C@H]1O (some centres unmarked) [FSA-507060] | 1 (≈ 1.72 µM)

tested on: S. aureus ATCC 29213; assay: MIC determination; assay type: cell-based; conditions: Staphylococcus aureus, ATCC29213, S. aureus ATCC 29213; read-out: MIC

Row | SMILES | MIC [µg/mL]
9 | CSC1O[C@H]([C@H](NC(=O)[C@H]2NC[C@@H]3CC(c4ccc(C(F)(F)F)cc4)=CCO[C@H]32)[C@H](C)Cl)C(O)[C@@H](O)[C@H]1O (some centres unmarked) [FSA-507060] | 2 (≈ 3.44 µM)

tested on: S. aureus MMX 3035 cErmA; assay: MIC determination; assay type: cell-based; conditions: Staphylococcus aureus, MMX3035CERMA; S. aureus MMX 3035 cErmA; read-out: MIC

Row | SMILES | MIC [µg/mL]
10 | CSC1O[C@H]([C@H](NC(=O)[C@H]2NC[C@@H]3CC(c4ccc(C(F)(F)F)cc4)=CCO[C@H]32)[C@H](C)Cl)C(O)[C@@H](O)[C@H]1O (some centres unmarked) [FSA-507060] | 32 (≈ 55.1 µM)

tested on: H. influenzae ATCC 49247; assay: MIC determination; assay type: cell-based; conditions: Haemophilus influenzae, ATCC49247; H. influenzae ATCC 49247; read-out: MIC

Row | SMILES | MIC [µg/mL]
11 | CSC1O[C@H]([C@H](NC(=O)[C@H]2NC[C@@H]3CC(c4ccc(C(F)(F)F)cc4)=CCO[C@H]32)[C@H](C)Cl)C(O)[C@@H](O)[C@H]1O (some centres unmarked) [FSA-507060] | 32 (≈ 55.1 µM)

tested on: S. pyogenes ATCC 19615; assay: MIC determination; assay type: cell-based; conditions: Streptococcus pyogenes, ATCC19615; S. pyogenes ATCC 19615; read-out: MIC

Row | SMILES | MIC [µg/mL]
12 | CSC1O[C@H]([C@H](NC(=O)[C@H]2NC[C@@H]3CC(c4ccc(C(F)(F)F)cc4)=CCO[C@H]32)[C@H](C)Cl)C(O)[C@@H](O)[C@H]1O (some centres unmarked) [FSA-507060] | 0.25 (≈ 0.43 µM)

tested on: E. faecalis ATCC 29212; assay: MIC determination; assay type: cell-based; conditions: Enterococcus faecalis, ATCC29212, read-out: MIC

Row | SMILES | MIC [µg/mL]
13 | CSC1O[C@H]([C@H](NC(=O)[C@H]2NC[C@@H]3CC(c4ccc(C(F)(F)F)cc4)=CCO[C@H]32)[C@H](C)Cl)C(O)[C@@H](O)[C@H]1O (some centres unmarked) [FSA-507060] | 8 (≈ 13.8 µM)

tested on: E. faecalis MMX 847 Macrolide-Resistant; assay: MIC determination; assay type: cell-based; conditions: Enterococcus faecalis; E. faecalis MMX 847 Macrolide-Resistant (MacRes); read-out: MIC

Row | SMILES | MIC [µg/mL]
14 | CSC1O[C@H]([C@H](NC(=O)[C@H]2NC[C@@H]3CC(c4ccc(C(F)(F)F)cc4)=CCO[C@H]32)[C@H](C)Cl)C(O)[C@@H](O)[C@H]1O (some centres unmarked) [FSA-507060] | 32 (≈ 55.1 µM)

tested on: E. coli ATCC 25922; assay: MIC determination; assay type: cell-based; conditions: Escherichia coli, ATCC25922, E. coli ATCC 25922; read-out: MIC

Row | SMILES | MIC [µg/mL]
15 | CSC1O[C@H]([C@H](NC(=O)[C@H]2NC[C@@H]3CC(c4ccc(C(F)(F)F)cc4)=CCO[C@H]32)[C@H](C)Cl)C(O)[C@@H](O)[C@H]1O (some centres unmarked) [FSA-507060] | 64 (≈ 110 µM)

tested on: B. fragilis ATCC 25285; assay: MIC determination; assay type: cell-based; conditions: Bacteroides fragilis, ATCC25285; B. fragilis ATCC 25285; read-out: MIC

Row | SMILES | MIC [µg/mL]
16 | CSC1O[C@H]([C@H](NC(=O)[C@H]2NC[C@@H]3CC(c4ccc(C(F)(F)F)cc4)=CCO[C@H]32)[C@H](C)Cl)C(O)[C@@H](O)[C@H]1O (some centres unmarked) [FSA-507060] | 32 (≈ 55.1 µM)

tested on: S. aureus Micromyx USA 300; assay: MIC determination; assay type: cell-based; conditions: Staphylococcus aureus, USA300; S. aureus Micromyx USA 300; read-out: MIC

Row | SMILES | MIC [µg/mL]
17 | CSC1O[C@H]([C@H](NC(=O)[C@H]2NC[C@@H]3CC(c4ccc(C(F)(F)F)cc4)=CCO[C@H]32)[C@H](C)Cl)C(O)[C@@H](O)[C@H]1O (some centres unmarked) [FSA-507060] | 0.5 (≈ 0.861 µM)

tested on: S. pneumoniae MMX 3031 cMefA; assay: MIC determination; assay type: cell-based; conditions: Streptococcus pneumoniae, MMX3031CMEFA

Row | SMILES | MIC [µg/mL]
18 | CSC1O[C@H]([C@H](NC(=O)[C@H]2NC[C@@H]3CC(c4ccc(C(F)(F)F)cc4)=CCO[C@H]32)[C@H](C)Cl)C(O)[C@@H](O)[C@H]1O (some centres unmarked) [FSA-507060] | 0.25 (≈ 0.43 µM)

tested on: P. aeruginosa MMX 3476 Δmex; assay: MIC determination; assay type: cell-based; conditions: Pseudomonas aeruginosa

Row | SMILES | MIC [µg/mL]
19 | CSC1O[C@H]([C@H](NC(=O)[C@H]2NC[C@@H]3CC(c4ccc(C(F)(F)F)cc4)=CCO[C@H]32)[C@H](C)Cl)C(O)[C@@H](O)[C@H]1O (some centres unmarked) [FSA-507060] | > 64

tested on: C. difficile BAA 1805; assay: MIC determination; assay type: cell-based; conditions: Clostridioides difficile, BAA1805; C. difficile BAA 1805; read-out: MIC

Row | SMILES | MIC [µg/mL]
20 | CSC1O[C@H]([C@H](NC(=O)[C@H]2NC[C@@H]3CC(c4ccc(C(F)(F)F)cc4)=CCO[C@H]32)[C@H](C)Cl)C(O)[C@@H](O)[C@H]1O (some centres unmarked) [FSA-507060] | 32 (≈ 55.1 µM)
